Experimental data: patent EP0007672A1, “Isocyanoalkenes, process and useful intermediates for their preparation, pharmaceutical and fungicidal preparations containing those isocyanoalkenes and the use of the fungicidal preparations in agriculture” (GIST-BROCADES N.V., priority 1978, dated 1980)
Values after ≈ are worked out from the molar mass of the structure shown. Where two headings read alike, the source gives them in different places.

What was measured:
Assay in all cases: MIC (Minimum Inhibitory Concentration)
Assay type in all cases: cell-based
[1] = test system: Trichophyton tonsurans; details: Trichophyton tonsurans 561-50; read-out: MIC values
[2] = test system: Staphylococcus aureus
[3] = test system: Proteus morganii; details: Morganella morganii; Proteus morganii 2241
[4] = test system: Trichophyton mentagrophytus
[5] = test system: Trichophyton violoceum; details: Trichophyton violoceum 442-62; read-out: MIC values
[6] = test system: Trichophyton verrucosum
[7] = test system: Trichophyton equinum
[8] = test system: Streptococcus haemolyticus; details: Streptococcus haemolyticus A 1088; read-out: MIC values
[9] = test system: Trichophyton rubrum
[10] = test system: Pasteurella multocida; details: Pasteurella multocida A 723; read-out: MIC values
[11] = test system: Trichophyton soudanese joyeux; details: Trichophyton soudanese joyeux 440-63; read-out: MIC values
[12] = test system: Diplococcus pneumoniae; details: Streptococcus pneumoniae; Diplococcus pneumoniae A 2783
[13] = test system: Candida albicans
[14] = test system: Bacillus subtilis; details: ATCC6633; Bacillus subtilis ATCC 6633
[15] = test system: Trichophyton schoenleinii; details: Trichophyton schoenleinii 435-63; read-out: MIC values
[16] = test system: Trichophyton quickeaneum; details: Trichophyton quickeaneum A 2040; read-out: MIC values
[17] = test system: Fusarium (bulb); details: Fusarium (bulb) A 3252
[18] = test system: Rhizoctonia solani; details: Rhizoctonia solani 200-25; read-out: MIC values
[19] = test system: Fusarium (tulip); details: Fusarium (tulip) A 3253
[20] = test system: Fusarium solani; details: Fusarium solani A 3245; read-out: MIC values
[21] = Trichophyton mentagrophytus 367-68, read-out: MIC values
[22] = Trichophyton mentagrophytus 421-67, read-out: MIC values
[23] = Trichophyton mentagrophytus A 3252, read-out: MIC values
[24] = Trichophyton mentagrophytus R 177, read-out: MIC values
[25] = Trichophyton mentagrophytus R 178, read-out: MIC values
[26] = Trichophyton mentagrophytus RRL 305, read-out: MIC values
[27] = Trichophyton verrucosum 134-66, read-out: MIC values
[28] = Trichophyton equinum 441-51, read-out: MIC values
[29] = Trichophyton equinum 856-71, read-out: MIC values
[30] = Trichophyton rubrum 218-65, read-out: MIC values
[31] = Trichophyton rubrum 494-62, read-out: MIC values
[32] = Trichophyton rubrum A 810, read-out: MIC values
[33] = Candida albicans A 7, read-out: MIC values
[34] = Candida albicans A 3140, read-out: MIC values
[35] = Candida albicans A 3141, read-out: MIC values
[36] = Candida albicans A 3142, read-out: MIC values
[37] = Candida albicans A 3143, read-out: MIC values
[38] = Candida albicans A 3144, read-out: MIC values
[39] = Candida albicans A 3145, read-out: MIC values
[40] = Candida albicans A 3165, read-out: MIC values
[41] = Candida albicans A 3166, read-out: MIC values
[42] = Candida albicans A 3167, read-out: MIC values
[43] = Candida albicans A 3168, read-out: MIC values
[44] = Candida albicans A 3169, read-out: MIC values
[45] = Candida albicans A 3171, read-out: MIC values
[46] = Candida albicans A 3184, read-out: MIC values
[47] = Candida albicans A 3190, read-out: MIC values
[48] = Candida albicans A 3191, read-out: MIC values
[49] = Candida albicans A 3192, read-out: MIC values
[50] = Candida albicans A 3194, read-out: MIC values
[51] = Candida albicans A 3196, read-out: MIC values
[52] = Trichophyton equinum 182-76, read-out: MIC values

SMILES: [C-]#[N+]C(=Cc1ccc(OC)cc1)S(=O)(=O)c1ccc(C)cc1 [Example 23, 1-isocyano-2-(4-methoxyphenyl)-1-(4-toluenesulphonyl)-ethene]
- MIC [1]: 0.8 µg/mL (≈ 2.55 µM)
- MIC ([2]; Staphylococcus aureus A 321): 3 µg/mL (≈ 9.57 µM)
- MIC ([2]; Staphylococcus aureus A 355): 3 µg/mL (≈ 9.57 µM)
- MIC ([2]; Staphylococcus aureus A 2000): 1.5 µg/mL (≈ 4.79 µM)
- MIC [3]: 6 µg/mL (≈ 19.1 µM)
- MIC [4, 21]: 25 µg/mL (≈ 79.8 µM)
- MIC [4, 22]: 100 µg/mL (≈ 319 µM)
- MIC [4, 23]: 100 µg/mL (≈ 319 µM)
- MIC [4, 24]: 12.5 µg/mL (≈ 39.9 µM)
- MIC [4, 25]: > 100 µg/mL
- MIC [4, 26]: 25 µg/mL (≈ 79.8 µM)
- MIC [5]: 3 µg/mL (≈ 9.57 µM)
- MIC [6, 27]: 1.5 µg/mL (≈ 4.79 µM)
- MIC [7, 28]: 1.5 µg/mL (≈ 4.79 µM)
- MIC [7, 29]: 100 µg/mL (≈ 319 µM)
- MIC [8]: < 0.05 µg/mL
- MIC [9, 30]: 25 µg/mL (≈ 79.8 µM)
- MIC [9, 31]: 100 µg/mL (≈ 319 µM)
- MIC [9, 32]: 25 µg/mL (≈ 79.8 µM)
- MIC [10]: 3 µg/mL (≈ 9.57 µM)
- MIC [11]: 6 µg/mL (≈ 19.1 µM)
- MIC [12]: 6 µg/mL (≈ 19.1 µM)
- MIC [13, 33]: 1.5 µg/mL (≈ 4.79 µM)
- MIC [13, 34]: 1.5 µg/mL (≈ 4.79 µM)
- MIC [13, 35]: 1.5 µg/mL (≈ 4.79 µM)
- MIC [13, 36]: 1.5 µg/mL (≈ 4.79 µM)
- MIC [13, 37]: 1.5 µg/mL (≈ 4.79 µM)
- MIC [13, 38]: 1.5 µg/mL (≈ 4.79 µM)
- MIC [13, 39]: 1.5 µg/mL (≈ 4.79 µM)
- MIC [13, 40]: 1.5 µg/mL (≈ 4.79 µM)
- MIC [13, 41]: 1.5 µg/mL (≈ 4.79 µM)
- MIC [13, 42]: 1.5 µg/mL (≈ 4.79 µM)
- MIC [13, 43]: 1.5 µg/mL (≈ 4.79 µM)
- MIC [13, 44]: 1.5 µg/mL (≈ 4.79 µM)
- MIC [13, 45]: 1.5 µg/mL (≈ 4.79 µM)
- MIC [13, 46]: 1.5 µg/mL (≈ 4.79 µM)
- MIC [13, 47]: 1.5 µg/mL (≈ 4.79 µM)
- MIC [13, 48]: 1.5 µg/mL (≈ 4.79 µM)
- MIC [13, 49]: 1.5 µg/mL (≈ 4.79 µM)
- MIC [13, 50]: 1.5 µg/mL (≈ 4.79 µM)
- MIC [13, 51]: 1.5 µg/mL (≈ 4.79 µM)
- MIC [14]: 3 µg/mL (≈ 9.57 µM)
- MIC [15]: 3 µg/mL (≈ 9.57 µM)

SMILES: [C-]#[N+]C(=CC(C)(C)C)S(=O)(=O)c1ccc(C)cc1 [Example 4, 3,3-dimethyl-1-isocyano-1-(4-toluenesulphonyl)-1-butene]
- MIC [1]: 1.5 µg/mL (≈ 5.7 µM)
- MIC ([2]; Staphylococcus aureus A 321): 12.5 µg/mL (≈ 47.5 µM)
- MIC ([2]; Staphylococcus aureus A 355): 6 µg/mL (≈ 22.8 µM)
- MIC ([2]; Staphylococcus aureus A 2000): 6 µg/mL (≈ 22.8 µM)
- MIC [3]: 100 µg/mL (≈ 380 µM)
- MIC [4, 21]: 0.2 µg/mL (≈ 0.759 µM)
- MIC [4, 22]: 0.8 µg/mL (≈ 3.04 µM)
- MIC [4, 23]: 1.5 µg/mL (≈ 5.7 µM)
- MIC [4, 24]: 6 µg/mL (≈ 22.8 µM)
- MIC [4, 25]: > 100 µg/mL
- MIC [4, 26]: 3 µg/mL (≈ 11.4 µM)
- MIC [5]: 0.05 µg/mL (≈ 0.19 µM)
- MIC [6, 27]: < 0.05 µg/mL
- MIC ([6]; Trichophyton verrucosum N 3, read-out: MIC values): 0.1 µg/mL (≈ 0.38 µM)
- MIC [7, 52]: 3 µg/mL (≈ 11.4 µM)
- MIC [7, 28]: < 0.05 µg/mL
- MIC [7, 29]: 0.2 µg/mL (≈ 0.759 µM)
- MIC [8]: 1.5 µg/mL (≈ 5.7 µM)
- MIC [9, 30]: 0.1 µg/mL (≈ 0.38 µM)
- MIC [9, 31]: 0.8 µg/mL (≈ 3.04 µM)
- MIC [9, 32]: 6 µg/mL (≈ 22.8 µM)
- MIC [10]: 3 µg/mL (≈ 11.4 µM)
- MIC [11]: 3 µg/mL (≈ 11.4 µM)
- MIC [12]: 6 µg/mL (≈ 22.8 µM)
- MIC [13, 33]: 6 µg/mL (≈ 22.8 µM)
- MIC [13, 34]: 12.5 µg/mL (≈ 47.5 µM)
- MIC [13, 35]: > 100 µg/mL
- MIC [13, 36]: 50 µg/mL (≈ 190 µM)
- MIC [13, 37]: 6 µg/mL (≈ 22.8 µM)
- MIC [13, 38]: 50 µg/mL (≈ 190 µM)
- MIC [13, 39]: > 100 µg/mL
- MIC [13, 40]: 50 µg/mL (≈ 190 µM)
- MIC [13, 41]: 12.5 µg/mL (≈ 47.5 µM)
- MIC [13, 42]: 50 µg/mL (≈ 190 µM)
- MIC [13, 43]: 50 µg/mL (≈ 190 µM)
- MIC [13, 44]: 100 µg/mL (≈ 380 µM)
- MIC [13, 45]: 50 µg/mL (≈ 190 µM)
- MIC [13, 46]: 100 µg/mL (≈ 380 µM)
- MIC [13, 47]: 50 µg/mL (≈ 190 µM)
- MIC [13, 48]: 50 µg/mL (≈ 190 µM)
- MIC [13, 49]: 25 µg/mL (≈ 94.9 µM)
- MIC [13, 50]: > 100 µg/mL
- MIC [13, 51]: 25 µg/mL (≈ 94.9 µM)
- MIC [14]: 12.5 µg/mL (≈ 47.5 µM)
- MIC [15]: < 0.05 µg/mL
- MIC [16]: 3 µg/mL (≈ 11.4 µM)

SMILES: [C-]#[N+]C(=Cc1ccco1)S(=O)(=O)c1ccc(C)cc1 [Example 10, 2-(2-furyl)-1-isocyano-1-(4-toluenesulphonyl)-ethene]
- MIC [1]: 3 µg/mL (≈ 11 µM)
- MIC ([2]; Staphylococcus aureus A 321): 12.5 µg/mL (≈ 45.7 µM)
- MIC ([2]; Staphylococcus aureus A 355): 12.5 µg/mL (≈ 45.7 µM)
- MIC ([2]; Staphylococcus aureus A 2000): 12.5 µg/mL (≈ 45.7 µM)
- MIC [3]: 6 µg/mL (≈ 22 µM)
- MIC [4, 21]: 0.1 µg/mL (≈ 0.366 µM)
- MIC [4, 22]: 1.5 µg/mL (≈ 5.49 µM)
- MIC [4, 23]: 3 µg/mL (≈ 11 µM)
- MIC [4, 24]: 1.5 µg/mL (≈ 5.49 µM)
- MIC [4, 25]: 100 µg/mL (≈ 366 µM)
- MIC [4, 26]: 0.1 µg/mL (≈ 0.366 µM)
- MIC [5]: 0.1 µg/mL (≈ 0.366 µM)
- MIC [17]: 25 µg/mL (≈ 91.5 µM)
- MIC [6, 27]: 0.2 µg/mL (≈ 0.732 µM)
- MIC ([6]; Trichophyton verrucosum A 2922, read-out: MIC values): < 0.05 µg/mL
- MIC [7, 52]: 1.5 µg/mL (≈ 5.49 µM)
- MIC [7, 28]: < 0.05 µg/mL
- MIC [7, 29]: < 0.05 µg/mL
- MIC [8]: 6 µg/mL (≈ 22 µM)
- MIC [9, 30]: 0.1 µg/mL (≈ 0.366 µM)
- MIC [9, 31]: 0.1 µg/mL (≈ 0.366 µM)
- MIC [9, 32]: < 0.05 µg/mL
- MIC [10]: < 1.5 µg/mL
- MIC [11]: 6 µg/mL (≈ 22 µM)
- MIC [18]: 1.5 µg/mL (≈ 5.49 µM)
- MIC [19]: 12.5 µg/mL (≈ 45.7 µM)
- MIC [12]: 6 µg/mL (≈ 22 µM)
- MIC [20]: 25 µg/mL (≈ 91.5 µM)
- MIC [13, 33]: 0.2 µg/mL (≈ 0.732 µM)
- MIC [13, 34]: 0.2 µg/mL (≈ 0.732 µM)
- MIC [13, 35]: 0.4 µg/mL (≈ 1.46 µM)
- MIC [13, 36]: 0.4 µg/mL (≈ 1.46 µM)
- MIC [13, 37]: 0.2 µg/mL (≈ 0.732 µM)
- MIC [13, 38]: 0.2 µg/mL (≈ 0.732 µM)
- MIC [13, 39]: 0.8 µg/mL (≈ 2.93 µM)
- MIC [13, 40]: 0.4 µg/mL (≈ 1.46 µM)
- MIC [13, 41]: 0.4 µg/mL (≈ 1.46 µM)
- MIC [13, 42]: 0.4 µg/mL (≈ 1.46 µM)
- MIC [13, 43]: 0.4 µg/mL (≈ 1.46 µM)
- MIC [13, 44]: 0.4 µg/mL (≈ 1.46 µM)
- MIC [13, 45]: 0.4 µg/mL (≈ 1.46 µM)
- MIC [13, 46]: 0.2 µg/mL (≈ 0.732 µM)
- MIC [13, 47]: 0.4 µg/mL (≈ 1.46 µM)
- MIC [13, 48]: 0.4 µg/mL (≈ 1.46 µM)
- MIC [13, 49]: 0.2 µg/mL (≈ 0.732 µM)
- MIC [13, 50]: 0.4 µg/mL (≈ 1.46 µM)
- MIC [13, 51]: 0.4 µg/mL (≈ 1.46 µM)
- MIC [14]: 6 µg/mL (≈ 22 µM)
- MIC [15]: 0.1 µg/mL (≈ 0.366 µM)
- MIC [16]: 3 µg/mL (≈ 11 µM)
